Literature values in patent US6710051B1, “Screening method” (Klaus Trier APS, priority 1997, dated 2004).
Where two headings read alike, the source gives them in different places.

Target: T1, skeletal RyR (Oryctolagus cuniculus, UniProt P11716)
T1 construct: Structure-activity Relationship of Xanthines and Skeletal Muscle Ryanodine Receptor/Ca^2+ Release Channel; from tissue; host or cells: Skeletal muscle
Settings: cited from earlier work; for Bound [3H]ryanodine % of control / Bound [3H]ryanodine pmol/mg protein / Bound [3H]ryanodine, % of control, +1 mmol/l AMPPCP / Bound [3H]ryanodine, % of control, +3 mmol/l AMP: xanthine […]; for Bound [3H]ryanodine % of control / Bound [3H]ryanodine pmol/mg protein: 1 mmol/l AMPPCP; for Bound [3H]ryanodine pmol/mg protein: means±SD of 3-4 experiments; for effect on the [3H] ryanodine binding compared to the control xanthine: Table 3

[1] = control 1,3-dimethylxanthine = 100
[2] = control 3,7-dimethylxanthine = 100

T1 sequence (P11716 whole entry): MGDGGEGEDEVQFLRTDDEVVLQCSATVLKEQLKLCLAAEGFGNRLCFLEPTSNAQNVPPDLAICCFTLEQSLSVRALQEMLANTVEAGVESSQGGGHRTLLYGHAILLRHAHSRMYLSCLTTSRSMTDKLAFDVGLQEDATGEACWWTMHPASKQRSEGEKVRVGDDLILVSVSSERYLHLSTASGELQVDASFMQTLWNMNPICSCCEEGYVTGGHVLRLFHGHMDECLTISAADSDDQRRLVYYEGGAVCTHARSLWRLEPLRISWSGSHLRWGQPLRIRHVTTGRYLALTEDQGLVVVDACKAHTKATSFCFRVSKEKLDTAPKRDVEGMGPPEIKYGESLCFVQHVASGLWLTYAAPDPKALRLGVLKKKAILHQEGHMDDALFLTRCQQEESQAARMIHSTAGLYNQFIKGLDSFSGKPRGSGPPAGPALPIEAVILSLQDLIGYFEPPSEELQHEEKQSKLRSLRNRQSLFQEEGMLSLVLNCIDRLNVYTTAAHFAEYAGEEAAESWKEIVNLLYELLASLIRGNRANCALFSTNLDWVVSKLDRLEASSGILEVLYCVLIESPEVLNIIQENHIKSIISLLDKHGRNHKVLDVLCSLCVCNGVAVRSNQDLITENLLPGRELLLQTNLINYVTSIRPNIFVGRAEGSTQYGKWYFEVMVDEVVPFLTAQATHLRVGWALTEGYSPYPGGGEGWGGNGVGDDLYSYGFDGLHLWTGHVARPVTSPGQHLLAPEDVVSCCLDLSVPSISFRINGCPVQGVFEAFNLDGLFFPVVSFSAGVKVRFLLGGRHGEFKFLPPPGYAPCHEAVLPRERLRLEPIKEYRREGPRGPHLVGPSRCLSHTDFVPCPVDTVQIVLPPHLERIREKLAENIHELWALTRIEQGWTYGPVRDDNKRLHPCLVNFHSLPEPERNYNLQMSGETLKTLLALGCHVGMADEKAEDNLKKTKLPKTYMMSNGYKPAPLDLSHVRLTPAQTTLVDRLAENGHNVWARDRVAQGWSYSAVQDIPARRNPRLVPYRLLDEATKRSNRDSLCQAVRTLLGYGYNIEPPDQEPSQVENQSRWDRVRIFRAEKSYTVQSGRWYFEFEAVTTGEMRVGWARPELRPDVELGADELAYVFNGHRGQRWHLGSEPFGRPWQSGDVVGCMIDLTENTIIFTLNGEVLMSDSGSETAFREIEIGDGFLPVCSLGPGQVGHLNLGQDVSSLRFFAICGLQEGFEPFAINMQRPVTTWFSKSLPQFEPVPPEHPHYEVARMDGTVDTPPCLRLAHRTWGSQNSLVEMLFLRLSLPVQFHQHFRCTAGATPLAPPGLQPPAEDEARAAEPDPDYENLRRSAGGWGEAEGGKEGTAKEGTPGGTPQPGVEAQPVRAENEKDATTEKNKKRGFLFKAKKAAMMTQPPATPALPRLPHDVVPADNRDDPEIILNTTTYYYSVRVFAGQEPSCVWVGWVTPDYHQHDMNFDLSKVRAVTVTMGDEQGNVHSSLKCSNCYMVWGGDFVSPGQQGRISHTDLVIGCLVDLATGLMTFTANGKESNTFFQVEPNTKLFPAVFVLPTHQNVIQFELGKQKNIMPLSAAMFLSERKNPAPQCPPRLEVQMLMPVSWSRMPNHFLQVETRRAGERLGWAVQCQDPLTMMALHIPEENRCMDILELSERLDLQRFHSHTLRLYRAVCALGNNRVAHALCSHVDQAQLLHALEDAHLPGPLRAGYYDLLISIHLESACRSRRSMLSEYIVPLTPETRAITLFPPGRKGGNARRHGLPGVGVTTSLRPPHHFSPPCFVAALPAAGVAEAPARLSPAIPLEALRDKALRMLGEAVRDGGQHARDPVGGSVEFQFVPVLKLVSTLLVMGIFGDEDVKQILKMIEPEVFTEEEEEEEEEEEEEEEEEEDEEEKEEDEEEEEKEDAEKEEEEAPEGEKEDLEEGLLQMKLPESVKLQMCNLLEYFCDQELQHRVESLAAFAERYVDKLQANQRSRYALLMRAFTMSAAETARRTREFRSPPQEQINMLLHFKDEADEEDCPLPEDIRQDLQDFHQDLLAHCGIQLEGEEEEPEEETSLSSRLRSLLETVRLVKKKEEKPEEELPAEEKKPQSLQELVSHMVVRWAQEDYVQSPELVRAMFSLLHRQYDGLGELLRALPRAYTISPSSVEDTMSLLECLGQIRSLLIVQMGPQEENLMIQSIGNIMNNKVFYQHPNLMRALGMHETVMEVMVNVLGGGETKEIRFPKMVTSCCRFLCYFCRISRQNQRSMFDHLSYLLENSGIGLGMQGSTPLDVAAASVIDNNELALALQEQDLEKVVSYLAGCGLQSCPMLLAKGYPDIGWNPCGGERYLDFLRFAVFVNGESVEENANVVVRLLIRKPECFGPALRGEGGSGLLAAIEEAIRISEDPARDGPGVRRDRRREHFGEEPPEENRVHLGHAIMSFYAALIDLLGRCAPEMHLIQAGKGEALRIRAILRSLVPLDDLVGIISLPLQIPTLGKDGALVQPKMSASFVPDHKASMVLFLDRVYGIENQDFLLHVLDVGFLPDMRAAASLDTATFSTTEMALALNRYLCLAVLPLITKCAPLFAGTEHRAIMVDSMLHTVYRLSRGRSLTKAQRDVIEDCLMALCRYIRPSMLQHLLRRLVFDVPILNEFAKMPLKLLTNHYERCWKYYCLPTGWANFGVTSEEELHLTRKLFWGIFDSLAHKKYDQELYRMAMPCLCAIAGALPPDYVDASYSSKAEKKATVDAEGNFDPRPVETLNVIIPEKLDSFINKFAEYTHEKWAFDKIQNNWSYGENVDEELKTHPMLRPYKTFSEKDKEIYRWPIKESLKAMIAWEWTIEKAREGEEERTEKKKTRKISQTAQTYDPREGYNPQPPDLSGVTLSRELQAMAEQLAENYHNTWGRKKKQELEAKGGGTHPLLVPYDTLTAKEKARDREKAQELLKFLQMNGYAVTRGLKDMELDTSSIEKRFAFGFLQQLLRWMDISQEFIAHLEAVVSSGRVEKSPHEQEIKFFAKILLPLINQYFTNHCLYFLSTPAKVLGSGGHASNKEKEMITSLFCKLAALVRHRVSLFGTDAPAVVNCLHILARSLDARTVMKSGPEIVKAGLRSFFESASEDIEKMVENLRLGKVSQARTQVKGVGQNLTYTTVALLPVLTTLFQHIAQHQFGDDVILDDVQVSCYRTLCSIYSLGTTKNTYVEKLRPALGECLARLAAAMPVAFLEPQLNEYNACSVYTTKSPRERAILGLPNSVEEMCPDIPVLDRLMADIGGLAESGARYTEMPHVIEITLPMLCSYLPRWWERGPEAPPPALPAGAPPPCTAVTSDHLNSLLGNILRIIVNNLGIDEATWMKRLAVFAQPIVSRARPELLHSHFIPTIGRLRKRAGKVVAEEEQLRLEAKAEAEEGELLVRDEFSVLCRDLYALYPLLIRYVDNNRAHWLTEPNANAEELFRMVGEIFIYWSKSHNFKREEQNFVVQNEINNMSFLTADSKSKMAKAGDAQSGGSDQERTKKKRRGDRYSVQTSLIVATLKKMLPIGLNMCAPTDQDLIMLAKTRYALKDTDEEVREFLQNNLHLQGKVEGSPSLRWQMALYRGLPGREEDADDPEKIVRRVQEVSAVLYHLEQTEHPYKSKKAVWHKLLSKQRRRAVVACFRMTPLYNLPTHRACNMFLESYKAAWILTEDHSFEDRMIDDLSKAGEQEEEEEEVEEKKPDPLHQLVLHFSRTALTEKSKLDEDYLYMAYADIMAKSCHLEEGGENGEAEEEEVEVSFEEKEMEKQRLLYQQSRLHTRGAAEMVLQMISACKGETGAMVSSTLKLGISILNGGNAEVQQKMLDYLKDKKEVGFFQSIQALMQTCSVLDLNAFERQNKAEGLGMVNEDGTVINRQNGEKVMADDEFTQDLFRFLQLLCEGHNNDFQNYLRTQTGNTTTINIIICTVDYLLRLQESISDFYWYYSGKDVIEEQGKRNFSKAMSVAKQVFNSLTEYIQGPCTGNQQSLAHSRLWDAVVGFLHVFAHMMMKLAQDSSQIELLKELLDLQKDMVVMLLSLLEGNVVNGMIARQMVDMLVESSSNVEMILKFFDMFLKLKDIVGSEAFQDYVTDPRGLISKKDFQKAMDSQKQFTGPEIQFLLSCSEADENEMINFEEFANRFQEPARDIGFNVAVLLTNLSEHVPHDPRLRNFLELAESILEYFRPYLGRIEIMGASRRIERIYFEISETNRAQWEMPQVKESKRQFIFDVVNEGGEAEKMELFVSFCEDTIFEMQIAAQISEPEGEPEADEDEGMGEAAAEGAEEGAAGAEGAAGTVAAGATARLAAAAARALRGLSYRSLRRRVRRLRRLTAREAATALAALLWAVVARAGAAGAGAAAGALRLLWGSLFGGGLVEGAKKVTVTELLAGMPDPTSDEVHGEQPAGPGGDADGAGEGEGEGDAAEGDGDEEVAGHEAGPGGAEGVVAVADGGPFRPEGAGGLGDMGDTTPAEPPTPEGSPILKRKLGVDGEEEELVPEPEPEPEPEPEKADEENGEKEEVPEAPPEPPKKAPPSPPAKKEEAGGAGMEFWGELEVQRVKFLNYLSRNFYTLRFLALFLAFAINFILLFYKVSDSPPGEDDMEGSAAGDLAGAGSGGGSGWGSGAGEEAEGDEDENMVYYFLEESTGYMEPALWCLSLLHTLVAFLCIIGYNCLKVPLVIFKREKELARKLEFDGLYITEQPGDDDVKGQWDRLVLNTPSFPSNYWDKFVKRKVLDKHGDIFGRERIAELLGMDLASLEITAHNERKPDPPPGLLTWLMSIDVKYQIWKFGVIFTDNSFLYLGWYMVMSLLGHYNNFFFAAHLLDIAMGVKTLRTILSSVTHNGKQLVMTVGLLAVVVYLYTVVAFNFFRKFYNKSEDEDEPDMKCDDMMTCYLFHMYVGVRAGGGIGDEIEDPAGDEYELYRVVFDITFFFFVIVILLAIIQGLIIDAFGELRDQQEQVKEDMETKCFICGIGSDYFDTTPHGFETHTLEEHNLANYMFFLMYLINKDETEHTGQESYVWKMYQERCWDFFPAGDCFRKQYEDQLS

For `Cn1c(=O)[nH]c(=O)c2[nH]cnc21` [3-Methylxanthine], the “Bound [3H]ryanodine % of control” value (control (-xanthine) = 100) is given as 134 ± 9 % of control, the “Bound [3H]ryanodine pmol/mg protein” value is given as 2.26 ± 0.15 pmol/mg protein and the “Bound [3H]ryanodine, % of control, +1 mmol/l AMPPCP” value (control (-xanthine) = 100) is given as 134 ± 9 % of control. For the same molecule, the “Bound [3H]ryanodine, % of control, +3 mmol/l AMP” value (control (-xanthine) = 100) was 137 ± 10 % of control.
For `CCCn1c(=O)c2c(ncn2C)n(CCC)c1=O` [1,3-Dipropyl-7-methylxanthine], the “Bound [3H]ryanodine pmol/mg protein” value is given as 4.96 ± 0.39 pmol/mg protein, the “Bound [3H]ryanodine, % of control, +1 mmol/l AMPPCP” value (control (-xanthine) = 100) is given as 295 ± 23 % of control and the “Bound [3H]ryanodine, % of control, +3 mmol/l AMP” value (control (-xanthine) = 100) is given as 326 ± 30 % of control.
For `Cn1c(=O)c2ncn(C)c2n(C)c1=O` [1,3,9-Trimethylxanthine], the “Bound [3H]ryanodine pmol/mg protein” value is given as 1.77 ± 0.12 pmol/mg protein, the “Bound [3H]ryanodine, % of control, +1 mmol/l AMPPCP” value (control (-xanthine) = 100) is given as 105 ± 7 % of control and the “Bound [3H]ryanodine, % of control, +3 mmol/l AMP” value (control (-xanthine) = 100) is given as 103 ± 15 % of control.
For `CCCn1cnc2c(=O)[nH]c(=O)[nH]c21` [9-Propylxanthine], the “Bound [3H]ryanodine % of control” value (control (-xanthine) = 100) is given as 96 ± 12 % of control, the “Bound [3H]ryanodine pmol/mg protein” value is given as 1.62 ± 0.20 pmol/mg protein and the “Bound [3H]ryanodine, % of control, +1 mmol/l AMPPCP” value (control (-xanthine) = 100) is given as 96 ± 12 % of control. The “Bound [3H]ryanodine, % of control, +3 mmol/l AMP” value (control (-xanthine) = 100) was 97 ± 23 % of control.
For `Cn1c(=O)c2[nH]c(-c3ccccc3)nc2n(C)c1=O` [8-Phenyl-1,3-dimethylxanthine], the “Bound [3H]ryanodine % of control” value [1] is given as 58 ± 9 % of control, the “Bound [3H]ryanodine pmol/mg protein” value is given as 1.67 ± 0.31 pmol/mg protein and the “Bound [3H]ryanodine, % of control, +1 mmol/l AMPPCP” value (control (-xanthine) = 100) is given as 99 ± 18 % of control. The “Bound [3H]ryanodine, % of control, +3 mmol/l AMP” value (control (-xanthine) = 100) was 103 ± 14 % of control.
In the case of `Cn1c(=O)[nH]c2nc[nH]c2c1=O` [1-Methylxanthine], the “Bound [3H]ryanodine % of control” value (control (-xanthine) = 100) is given as 179 ± 22 % of control, the “Bound [3H]ryanodine pmol/mg protein” value is given as 3.02 ± 0.38 pmol/mg protein and the “Bound [3H]ryanodine, % of control, +1 mmol/l AMPPCP” value (control (-xanthine) = 100) is given as 179 ± 22 % of control. For the same molecule, the “Bound [3H]ryanodine, % of control, +3 mmol/l AMP” value (control (-xanthine) = 100) was 167 ± 16 % of control.
In the case of `Cn1c(=O)c2c(ncn2CCCl)n(C)c1=O` [7β-Chloroethyl-1,3-dimethylxanthine], the “Bound [3H]ryanodine % of control” value [1] is listed as 135 ± 6 % of control, the “Bound [3H]ryanodine pmol/mg protein” value is listed as 3.88 ± 0.16 pmol/mg protein and the “Bound [3H]ryanodine, % of control, +1 mmol/l AMPPCP” value (control (-xanthine) = 100) is listed as 230 ± 9 % of control. For the same molecule, the “Bound [3H]ryanodine, % of control, +3 mmol/l AMP” value (control (-xanthine) = 100) was 256 ± 34 % of control.
For `CCCn1cnc2[nH]c(=O)[nH]c(=O)c21` [7-Propylxanthine], the “Bound [3H]ryanodine % of control” value (control (-xanthine) = 100) is given as 270 ± 12 % of control, the “Bound [3H]ryanodine pmol/mg protein” value is given as 4.57 ± 0.20 pmol/mg protein and the “Bound [3H]ryanodine, % of control, +1 mmol/l AMPPCP” value (control (-xanthine) = 100) is given as 270 ± 12 % of control. The “Bound [3H]ryanodine, % of control, +3 mmol/l AMP” value (control (-xanthine) = 100) was 234 ± 14 % of control.
For `Cn1c(=O)c2[nH]c(-c3ccc(S(=O)(=O)O)cc3)nc2n(C)c1=O` [8-(p-Sulfophenyl)-1,3-dimethylxanthine], the “Bound [3H]ryanodine % of control” value [1] is listed as 54 ± 6 % of control, the “Bound [3H]ryanodine pmol/mg protein” value is listed as 1.55 ± 0.28 pmol/mg protein and the “Bound [3H]ryanodine, % of control, +1 mmol/l AMPPCP” value (control (-xanthine) = 100) is listed as 92 ± 17 % of control. The “Bound [3H]ryanodine, % of control, +3 mmol/l AMP” value (control (-xanthine) = 100) was 91 ± 16 % of control.
In the case of `CCCn1c(=O)[nH]c(=O)c2[nH]cnc21` [3-Propylxanthine], the “Bound [3H]ryanodine % of control” value (control (-xanthine) = 100) is listed as 226 ± 14 % of control, the “Bound [3H]ryanodine pmol/mg protein” value is listed as 3.82 ± 0.23 pmol/mg protein and the “Bound [3H]ryanodine, % of control, +1 mmol/l AMPPCP” value (control (-xanthine) = 100) is listed as 226 ± 14 % of control. The “Bound [3H]ryanodine, % of control, +3 mmol/l AMP” value (control (-xanthine) = 100) was 203 ± 14 % of control.
For `C#CCn1c(=O)c2c(ncn2C)n(C)c1=O` [3,7-Dimethyl-1-propargylxanthine], the “Bound [3H]ryanodine % of control” value [2] is listed as 144 ± 3 % of control, the “Bound [3H]ryanodine pmol/mg protein” value is listed as 3.88 ± 0.10 pmol/mg protein and the “Bound [3H]ryanodine, % of control, +1 mmol/l AMPPCP” value (control (-xanthine) = 100) is listed as 230 ± 6 % of control. For the same molecule, the “Bound [3H]ryanodine, % of control, +3 mmol/l AMP” value (control (-xanthine) = 100) was 201 ± 33 % of control.
In the case of `CC(C)Cn1c(=O)n(C)c(=O)c2[nH]cnc21` [3-Isobutyl-1-methylxanthine], the “Bound [3H]ryanodine % of control” value (control (-xanthine) = 100) is listed as 175 ± 20 % of control, the “Bound [3H]ryanodine pmol/mg protein” value is listed as 2.96 ± 0.33 pmol/mg protein and the “Bound [3H]ryanodine, % of control, +1 mmol/l AMPPCP” value (control (-xanthine) = 100) is listed as 175 ± 20 % of control. For the same molecule, the “Bound [3H]ryanodine, % of control, +3 mmol/l AMP” value (control (-xanthine) = 100) was 139 ± 11 % of control.
For `Cn1c(=O)[nH]c2c(ncn2C)c1=O` [1,9-Dimethylxanthine], the “effect on the [3H] ryanodine binding compared to the control xanthine” value is given as “less than 110%”, the “Bound [3H]ryanodine % of control” value (control (-xanthine) = 100) is given as 84 ± 14 % of control and the “Bound [3H]ryanodine pmol/mg protein” value is given as 1.42 ± 0.23 pmol/mg protein. For the same molecule, the “Bound [3H]ryanodine, % of control, +1 mmol/l AMPPCP” value (control (-xanthine) = 100) was 84 ± 14 % of control and the “Bound [3H]ryanodine, % of control, +3 mmol/l AMP” value (control (-xanthine) = 100) was 86 ± 18 % of control.
For `Cc1nc2[nH]c(=O)[nH]c(=O)c2[nH]1` [8-Methylxanthine], the “Bound [3H]ryanodine % of control” value (control (-xanthine) = 100) is given as 95 ± 20 % of control, the “Bound [3H]ryanodine pmol/mg protein” value is given as 1.61 ± 0.33 pmol/mg protein and the “Bound [3H]ryanodine, % of control, +1 mmol/l AMPPCP” value (control (-xanthine) = 100) is given as 95 ± 20 % of control. For the same molecule, the “Bound [3H]ryanodine, % of control, +3 mmol/l AMP” value (control (-xanthine) = 100) was 90 ± 11 % of control.
In the case of `Cn1c(=O)[nH]c2ncn(C)c2c1=O` [1,7-Dimethylxanthine], the “Bound [3H]ryanodine % of control” value (control (-xanthine) = 100) is listed as 360 ± 28 % of control, the “Bound [3H]ryanodine pmol/mg protein” value is listed as 6.08 ± 0.47 pmol/mg protein and the “Bound [3H]ryanodine, % of control, +1 mmol/l AMPPCP” value (control (-xanthine) = 100) is listed as 360 ± 28 % of control. For the same molecule, the “Bound [3H]ryanodine, % of control, +3 mmol/l AMP” value (control (-xanthine) = 100) was 378 ± 34 % of control.
For `Cn1c(=O)c2[nH]c(CCC(=O)O)nc2n(C)c1=O` [8-Propionic acid 1,3-dimethylxanthine], the “Bound [3H]ryanodine % of control” value [1] is given as 60 ± 3 % of control, the “Bound [3H]ryanodine pmol/mg protein” value is given as 1.73 ± 0.09 pmol/mg protein and the “Bound [3H]ryanodine, % of control, +1 mmol/l AMPPCP” value (control (-xanthine) = 100) is given as 102 ± 5 % of control. The “Bound [3H]ryanodine, % of control, +3 mmol/l AMP” value (control (-xanthine) = 100) was 100 ± 11 % of control.
For `CN1CN(C)c2c1[nH]c(=O)[nH]c2=O` [7,9-Dimethylxanthine], the “Bound [3H]ryanodine % of control” value (control (-xanthine) = 100) is given as 102 ± 13 % of control, the “Bound [3H]ryanodine pmol/mg protein” value is given as 1.73 ± 0.22 pmol/mg protein and the “Bound [3H]ryanodine, % of control, +1 mmol/l AMPPCP” value (control (-xanthine) = 100) is given as 102 ± 13 % of control. For the same molecule, the “Bound [3H]ryanodine, % of control, +3 mmol/l AMP” value (control (-xanthine) = 100) was 100 ± 15 % of control.
For `Cn1c(=O)c2c(ncn2CC(O)CO)n(C)c1=O` (stereo not shown) [7-(2,3-Dihydroxypropyl)-1,3-dimethylxanthine], the “Bound [3H]ryanodine % of control” value [1] is listed as 69 ± 6 % of control, the “Bound [3H]ryanodine pmol/mg protein” value is listed as 1.97 ± 0.16 pmol/mg protein and the “Bound [3H]ryanodine, % of control, +1 mmol/l AMPPCP” value (control (-xanthine) = 100) is listed as 117 ± 9 % of control. For the same molecule, the “Bound [3H]ryanodine, % of control, +3 mmol/l AMP” value (control (-xanthine) = 100) was 123 ± 16 % of control.
In the case of `Cn1c(=O)c2[nH]c(C3CCCC3)nc2n(C)c1=O` [8-Cyclopentyl-1,3-dimethylxanthine], the “Bound [3H]ryanodine % of control” value [1] is given as 78 ± 8 % of control, the “Bound [3H]ryanodine pmol/mg protein” value is given as 2.25 ± 0.28 pmol/mg protein and the “Bound [3H]ryanodine, % of control, +1 mmol/l AMPPCP” value (control (-xanthine) = 100) is given as 133 ± 6 % of control. For the same molecule, the “Bound [3H]ryanodine, % of control, +3 mmol/l AMP” value (control (-xanthine) = 100) was 142 ± 14 % of control.
In the case of `CCCCCCn1c(=O)c2c(ncn2C)n(C)c1=O` [1-Hexyl-3,7-dimethylxanthine], the “effect on the [3H] ryanodine binding compared to the control xanthine” value is given as “more than 200%”, the “Bound [3H]ryanodine % of control” value [2] is given as 259 ± 24 % of control and the “Bound [3H]ryanodine pmol/mg protein” value is given as 6.99 ± 0.80 pmol/mg protein. For the same molecule, the “Bound [3H]ryanodine, % of control, +1 mmol/l AMPPCP” value (control (-xanthine) = 100) was 414 ± 47 % of control and the “Bound [3H]ryanodine, % of control, +3 mmol/l AMP” value (control (-xanthine) = 100) was 449 ± 28 % of control.
For `CC(=O)CCCCn1c(=O)c2c(ncn2C)n(C)c1=O` [1-(5-Oxohexyl)-3,7-dimethylxanthine], the “Bound [3H]ryanodine % of control” value [2] is given as 118 ± 3 % of control, the “Bound [3H]ryanodine pmol/mg protein” value is given as 3.18 ± 0.08 pmol/mg protein and the “Bound [3H]ryanodine, % of control, +1 mmol/l AMPPCP” value (control (-xanthine) = 100) is given as 188 ± 5 % of control. The “Bound [3H]ryanodine, % of control, +3 mmol/l AMP” value (control (-xanthine) = 100) was 185 ± 25 % of control.
For `Cn1c(=O)c2[nH]c(Cl)nc2n(C)c1=O` [8-Chloro-1,3-dimethylxanthine], the “Bound [3H]ryanodine % of control” value [1] is given as 68 ± 4 % of control, the “Bound [3H]ryanodine pmol/mg protein” value is given as 1.96 ± 0.13 pmol/mg protein and the “Bound [3H]ryanodine, % of control, +1 mmol/l AMPPCP” value (control (-xanthine) = 100) is given as 116 ± 17 % of control. For the same molecule, the “Bound [3H]ryanodine, % of control, +3 mmol/l AMP” value (control (-xanthine) = 100) was 108 ± 14 % of control.
